Results on 3 molecules are retold here after PMC3479019, “Identification and functional analysis of gene cluster involvement in biosynthesis of the cyclic lipopeptide antibiotic pelgipeptin produced by Paenibacillus elgii” (BMC Microbiology, 2012).

Common to all, as to experiment: amino acid adenylation, pyrophosphate release, inorganic pyrophosphatase / malachite green, […] nm
What all share (assay type): biochemical
Common to all, as to conditions: 5 mM ATP, 10 mM MgCl2, 6 mM amino acid, 100 mM NaCl, 50 mM Tris-HCl pH 7.5, 25 °C

In one experiment the target is T1, PlpD A1 (Paenibacillus elgii, UniProt I1Z6A2).
T1 construct: pET28a, E. coli BL21(DE3), Ni-purified, His-tag (C-terminal by primers, inferred); borders by primers plpD-A1-F/R, N-term MENILT, C-term GAEYE then LE-tag (translated from primers)
T1 sequence (I1Z6A2 446-978): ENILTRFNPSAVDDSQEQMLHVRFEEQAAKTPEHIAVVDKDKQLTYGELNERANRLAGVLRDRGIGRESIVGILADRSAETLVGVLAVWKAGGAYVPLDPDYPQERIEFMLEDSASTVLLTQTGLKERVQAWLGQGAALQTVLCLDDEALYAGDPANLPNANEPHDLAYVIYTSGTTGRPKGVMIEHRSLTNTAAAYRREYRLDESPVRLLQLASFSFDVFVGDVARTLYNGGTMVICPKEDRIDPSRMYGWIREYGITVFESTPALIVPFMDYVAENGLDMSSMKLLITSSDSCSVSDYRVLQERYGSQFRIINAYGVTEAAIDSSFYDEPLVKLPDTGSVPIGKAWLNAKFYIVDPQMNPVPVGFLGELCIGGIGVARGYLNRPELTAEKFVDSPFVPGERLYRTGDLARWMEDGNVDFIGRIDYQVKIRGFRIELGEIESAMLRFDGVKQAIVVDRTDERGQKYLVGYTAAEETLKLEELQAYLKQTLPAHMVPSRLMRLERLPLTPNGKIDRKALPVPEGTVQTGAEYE

The target in a further experiment is T2, PlpF A1 (Paenibacillus elgii, UniProt I1Z6A4).
T2 construct: pET28a, E. coli BL21(DE3), Ni-purified, His-tag (N-terminal by primers, stop codon in reverse primer, inferred); borders by primers plpF-A1-F/R, N-term (AS)LSDSE, C-term TGLE (translated from primers)

The target in a further experiment is T3, PlpE A3 (Paenibacillus elgii, UniProt I1Z6A3).
T3 construct: pET28a, E. coli BL21(DE3), Ni-purified, His-tag (C-terminal by primers, inferred); borders by primers plpE-A3-F/R, N-term MAAEQT, C-term ADYVA then KL-tag (translated from primers)
T3 sequence (I1Z6A3 2324-2843): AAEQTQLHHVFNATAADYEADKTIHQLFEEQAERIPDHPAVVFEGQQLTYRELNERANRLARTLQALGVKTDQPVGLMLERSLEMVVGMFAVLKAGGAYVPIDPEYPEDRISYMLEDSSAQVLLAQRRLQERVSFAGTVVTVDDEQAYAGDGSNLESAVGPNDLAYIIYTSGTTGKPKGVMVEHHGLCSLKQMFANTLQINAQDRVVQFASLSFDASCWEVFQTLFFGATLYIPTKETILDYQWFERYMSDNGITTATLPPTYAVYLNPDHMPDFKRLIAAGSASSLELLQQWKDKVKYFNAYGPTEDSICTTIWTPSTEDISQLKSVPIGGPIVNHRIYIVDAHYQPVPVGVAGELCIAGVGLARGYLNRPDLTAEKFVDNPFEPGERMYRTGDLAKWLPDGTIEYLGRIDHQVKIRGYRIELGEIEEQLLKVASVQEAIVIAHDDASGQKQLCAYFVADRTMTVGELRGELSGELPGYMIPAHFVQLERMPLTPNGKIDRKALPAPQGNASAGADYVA

T2 sequence (I1Z6A4 entry or part of it): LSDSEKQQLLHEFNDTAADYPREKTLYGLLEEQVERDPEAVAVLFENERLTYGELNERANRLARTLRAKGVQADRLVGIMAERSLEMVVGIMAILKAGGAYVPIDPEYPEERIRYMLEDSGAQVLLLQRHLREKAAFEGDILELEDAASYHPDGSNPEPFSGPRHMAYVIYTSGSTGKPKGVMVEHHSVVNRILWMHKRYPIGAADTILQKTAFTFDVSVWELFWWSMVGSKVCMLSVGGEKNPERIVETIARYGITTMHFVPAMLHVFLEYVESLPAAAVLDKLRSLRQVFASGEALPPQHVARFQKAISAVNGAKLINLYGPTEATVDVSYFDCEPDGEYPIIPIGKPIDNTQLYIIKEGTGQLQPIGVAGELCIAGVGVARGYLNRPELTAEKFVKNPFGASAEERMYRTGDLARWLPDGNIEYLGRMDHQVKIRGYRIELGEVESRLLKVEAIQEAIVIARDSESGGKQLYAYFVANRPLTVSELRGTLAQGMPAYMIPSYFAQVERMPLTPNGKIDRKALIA

Take `NCC[C@H](N)C(=O)O` [L-Dab]: the “amino acid adenylation, pyrophosphate release, inorganic pyrophosphatase / malac” value on PlpD A1 is “PlpD A1, PlpE A3, and Plp F A1 clearly exhibited the highest activity for L-Dab”.

As to `N[C@@H](CO)C(=O)O` [L-Ser], the “amino acid adenylation, pyrophosphate release, inorganic pyrophosphatase / malac” value on PlpF A1 is “clearly exhibited the highest activity for L-Dab, L-Phe, and L-Ser, respectively”.

Turning to `N[C@@H](Cc1ccccc1)C(=O)O` [L-Phe], the “amino acid adenylation, pyrophosphate release, inorganic pyrophosphatase / malac” value on PlpE A3 is “clearly exhibited the highest activity for L-Dab, L-Phe, and L-Ser, respectively”.
